Test results taken from patent publication US20170172955A1, “Treatment of Mixed Dyslipidemia” (priority 2015, published 2017).
Where two headings read alike, the source gives them in different places.

Legend:
CYP2C19 = CYP2C19 (Homo sapiens, UniProt P33261); assay: biochemical
Method: (§1) Human livers, HLM141, HLM143, and HLM144 were selected from the University of Washington Human Liver Bank for this study. […] The actual concentrations used for each of the other probes are specified below. […] The seven isoforms and the metabolic pathway of each of the probes used to monitor specific isoform activity are listed below.
CYP2C19: The 4′-hydroxylation of (S)-mephenytoin (50 μM). The reaction is monitored by quantitative GC/MS using mephenytoin-(d3-methyl) as the internal standard.

CYP2E1 = CYP2E1 (Homo sapiens, UniProt P05181); assay: biochemical
Chain of CYP2E1 (P05181 whole entry): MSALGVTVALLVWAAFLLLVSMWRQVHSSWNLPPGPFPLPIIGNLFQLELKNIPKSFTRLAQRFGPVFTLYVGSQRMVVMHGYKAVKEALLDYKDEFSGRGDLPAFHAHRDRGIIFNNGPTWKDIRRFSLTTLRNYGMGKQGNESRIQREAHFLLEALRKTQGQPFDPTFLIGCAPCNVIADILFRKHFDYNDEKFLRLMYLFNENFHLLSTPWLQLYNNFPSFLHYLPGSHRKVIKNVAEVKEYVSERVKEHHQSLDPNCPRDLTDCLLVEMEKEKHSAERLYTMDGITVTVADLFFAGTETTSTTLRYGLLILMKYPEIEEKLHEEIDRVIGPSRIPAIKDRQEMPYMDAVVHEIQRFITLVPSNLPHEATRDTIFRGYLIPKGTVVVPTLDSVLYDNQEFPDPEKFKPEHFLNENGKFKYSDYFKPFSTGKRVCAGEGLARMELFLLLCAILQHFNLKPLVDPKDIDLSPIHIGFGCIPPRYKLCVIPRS
Method: as §1
CYP2E1: The formation of p-nitrocatechol from p-nitrophenol (40 μM). Amounts of product formed are monitored by HPLC.

[1] = system: STAM model of non-alcoholic steatohepatitis (NASH); details: for Sirius Red positive area (mean ± SD) / NAFLD Activity score, NAS (mean ± SD) / Fasting blood glucose (mean ± SD) / Plasma insulin (mean ± SD) / Liver hydroxyl-proline (mean ± SD) / Liver triglyceride (mean ± SD) / Non-fasting blood glucose (mean ± SD) / Plasma ALT (mean ± SD) / Plasma AST (mean ± SD) / Plasma ketone body (mean ± SD): STAM mice; for Fasting blood glucose (mean ± SD) / Plasma insulin (mean ± SD): Day 18, 8 hours of fasting; for Liver hydroxyl-proline (mean ± SD) / Liver triglyceride (mean ± SD) / Non-fasting blood glucose (mean ± SD) / Plasma ALT (mean ± SD) / Plasma AST (mean ± SD) / Plasma ketone body (mean ± SD): termination (Day 21)
Method: Telmisartan (Micardis®) was purchased from Boehringer Ingelheim GmbH (Germany) and dissolved in pure water.
Telmisartan was administered at a dose of 10 mg/kg once daily.
Measurement of whole blood and plasma biochemistry: Eight-hour fasting blood samples were collected from facial vein at 3 days prior to termination.
Eight-hour fasting blood glucose was measured in whole blood using Life Check (EIDIA Co. Ltd., Japan). For plasma biochemistry, eight-hour fasting blood was collected in polypropylene tubes with anticoagulant (Novo-Heparin, Mochida Pharmaceutical, Japan) and centrifuged at 1,000×g for 15 minutes at 4° C. The supernatant was collected and stored at −80° C. until use. Plasma insulin levels were quantified by Ultra Sensitive Mouse Insulin ELISA kit (Morinaga Institute of Biological Science, Inc., Japan).
On the day of termination, non-fasting blood glucose was measured in whole blood using Life Check. For plasma biochemistry, non-fasting blood was collected in polypropylene tubes with anticoagulant (Novo-Heparin) and centrifuged at 1,000×g for 15 minutes at 4° C. The supernatant was collected and stored at −80° C. until use. Plasma ALT, AST, ALP, GGT, BUN, creatinine and total bilirubin levels were measured by FUJI DRI-CHEM 7000 (Fujifilm Corporation, Japan). Plasma ketone body levels were quantified by EnzyChrom™ Ketone Body Assay Kit (BioAssay Systems, USA). […]
Histological analyses: For HE staining, sections were cut from paraffin blocks of liver tissue prefixed in Bouin's solution and stained with Lillie-Mayer's Hematoxylin (Muto Pure Chemicals Co., Ltd., Japan) and eosin solution (Wako Pure Chemical Industries). […] To visualize collagen deposition, Bouin's fixed liver sections were stained using picro-Sirius red solution (Waldeck, Germany). […]
Statistical analyses were performed using Bonferroni Multiple Comparison Test on GraphPad Prism 6 (GraphPad Software Inc., USA). […] Results were expressed as mean±SD.
The viability, clinical signs and behavior were monitored daily. Body weight was recorded before the treatment. […] The animals were sacrificed by exsanguination through direct cardiac puncture under isoflurane anesthesia (Pfizer Inc.) at 9 weeks of age.

plasma fibrinogen = assay: Fibrinogen levels in rats (electro immunoassay); format: in vivo, rat; details: male Sprague-Dawley rats
Method: Fifty-Six male Sprague-Dawley rats were obtained from Charles River Laboratories. All animals were allowed normal rat chow (Ralston-Purina) and water ad libitum in temperature-controlled rooms, under a 12-hour light, 12-hour dark cycle beginning with lights on at 6 AM. Rats were distributed to 7 groups of 8 rats per group. […] Control animals received vehicle alone. […] CI-719 is gemfibrozil. […] The plasma fibrinogen plasma levels were determined by electro immunoassay. […] Data are shown in FIG. 12 as mean±SEM of as percent of control fibrinogen levels. *p<0.001, two-sided unpaired t-test, compared to control.

[2] = Musculoskeletal adverse events, study A4141001
[3] = gemcabene 30 mg/kg PO QD, n = 8
[4] = gemcabene 100 mg/kg PO QD, n = 8
[5] = gemcabene 300 mg/kg PO QD, n = 8
[6] = study A4141001, patient type IIa
[7] = study A4141001, patient type IIa + IIb
[8] = study A4141001, patient type IIb

Chain of CYP2C19 (P33261 whole entry, canonical isoform): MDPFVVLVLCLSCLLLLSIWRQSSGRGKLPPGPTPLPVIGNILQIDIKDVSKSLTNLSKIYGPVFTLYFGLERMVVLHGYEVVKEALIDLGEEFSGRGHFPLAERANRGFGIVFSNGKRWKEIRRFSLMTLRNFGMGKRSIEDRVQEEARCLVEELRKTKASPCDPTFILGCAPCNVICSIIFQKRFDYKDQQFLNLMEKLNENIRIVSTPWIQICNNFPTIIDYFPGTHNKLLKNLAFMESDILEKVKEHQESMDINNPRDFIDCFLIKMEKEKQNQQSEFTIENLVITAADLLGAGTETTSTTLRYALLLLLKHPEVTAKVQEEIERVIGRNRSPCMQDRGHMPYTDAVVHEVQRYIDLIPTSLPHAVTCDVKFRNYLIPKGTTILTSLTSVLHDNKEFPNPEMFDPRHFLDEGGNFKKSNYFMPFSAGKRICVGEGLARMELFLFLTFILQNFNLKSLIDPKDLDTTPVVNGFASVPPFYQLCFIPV

CC(C)(CCCCOCCCCC(C)(C)C(=O)O)C(=O)O [Gemcabene, 6,6′-oxybis(2,2-dimethylhexanoic acid)]
IC50 (CYP2C19): > 1.5 mM
IC50 (CYP2C19; human, microsomes): > 1.5 mM
IC50 (CYP2E1): > 1.5 mM
activity slightly enhanced (CYP2E1; human, 1500 μM): about 20%
IC50 (CYP2E1; human, microsomes): > 1.5 mM
Sirius Red positive area (mean ± SD) ([1]; gemcabene 30 mg/kg PO QD 6-9 wks): 0.56 ± 0.18%
NAFLD Activity score, NAS (mean ± SD) ([1]; gemcabene 30 mg/kg PO QD 6-9 wks, n = 8): 3.4 ± 1.1
Fasting blood glucose (mean ± SD) ([1]; gemcabene 30 mg/kg PO QD): 437 ± 42 mg/dL
Plasma insulin (mean ± SD) ([1]; gemcabene 30 mg/kg PO QD): 0.13 ± 0.04 ng/mL
Liver hydroxyl-proline (mean ± SD) ([1]; gemcabene 30 mg/kg PO QD): 0.66 ± 0.12 μg/mg total protein
Liver triglyceride (mean ± SD) ([1]; gemcabene 30 mg/kg PO QD): 49.2 ± 8.6 mg/g liver
Non-fasting blood glucose (mean ± SD) ([1]; gemcabene 30 mg/kg PO QD): 607 ± 48 mg/dL
Plasma ALT (mean ± SD) ([1]; gemcabene 30 mg/kg PO QD): 41 ± 15 U/L
Plasma AST (mean ± SD) ([1]; gemcabene 30 mg/kg PO QD): 100 ± 44 U/L
Plasma ketone body (mean ± SD) ([1]; gemcabene 30 mg/kg PO QD): 9.43 ± 2.35 mM
Sirius Red positive area (mean ± SD) ([1]; gemcabene 100 mg/kg PO QD 6-9 wks): 0.53 ± 0.18%
NAFLD Activity score, NAS (mean ± SD) ([1]; gemcabene 100 mg/kg PO QD 6-9 wks, n = 8): 3.6 ± 1.4
Fasting blood glucose (mean ± SD) ([1]; gemcabene 100 mg/kg PO QD): 441 ± 46 mg/dL
Plasma insulin (mean ± SD) ([1]; gemcabene 100 mg/kg PO QD): 0.17 ± 0.06 ng/mL
Liver hydroxyl-proline (mean ± SD) ([1]; gemcabene 100 mg/kg PO QD): 0.74 ± 0.38 μg/mg total protein
Liver triglyceride (mean ± SD) ([1]; gemcabene 100 mg/kg PO QD): 58.4 ± 14.5 mg/g liver
Non-fasting blood glucose (mean ± SD) ([1]; gemcabene 100 mg/kg PO QD): 653 ± 53 mg/dL
Plasma ALT (mean ± SD) ([1]; gemcabene 100 mg/kg PO QD): 27 ± 7 U/L
Plasma AST (mean ± SD) ([1]; gemcabene 100 mg/kg PO QD): 88 ± 32 U/L
Plasma ketone body (mean ± SD) ([1]; gemcabene 100 mg/kg PO QD): 5.75 ± 3.24 mM
Sirius Red positive area (mean ± SD) ([1]; gemcabene 300 mg/kg PO QD 6-9 wks): 0.59 ± 0.16%
NAFLD Activity score, NAS (mean ± SD) ([1]; gemcabene 300 mg/kg PO QD 6-9 wks, n = 8): 2.5 ± 0.8
Fasting blood glucose (mean ± SD) ([1]; gemcabene 300 mg/kg PO QD): 407 ± 15 mg/dL
Plasma insulin (mean ± SD) ([1]; gemcabene 300 mg/kg PO QD): 0.13 ± 0.04 ng/mL
Liver hydroxyl-proline (mean ± SD) ([1]; gemcabene 300 mg/kg PO QD): 0.70 ± 0.10 μg/mg total protein
Liver triglyceride (mean ± SD) ([1]; gemcabene 300 mg/kg PO QD): 56.0 ± 13.9 mg/g liver
Non-fasting blood glucose (mean ± SD) ([1]; gemcabene 300 mg/kg PO QD): 638 ± 63 mg/dL
Plasma ALT (mean ± SD) ([1]; gemcabene 300 mg/kg PO QD): 32 ± 14 U/L
Plasma AST (mean ± SD) ([1]; gemcabene 300 mg/kg PO QD): 147 ± 122 U/L
Plasma ketone body (mean ± SD) ([1]; gemcabene 300 mg/kg PO QD): 5.68 ± 3.08 mM
number of mice with Hepatocyte ballooning score 0 (None) [1, 3]: 4
number of mice with Hepatocyte ballooning score 1 (Few balloon cells) [1, 3]: 2
number of mice with Hepatocyte ballooning score 2 (Many cells/prominent ballooning) [1, 3]: 2
number of mice with Lobular inflammation score 0 (No foci) [1, 3]: 1
number of mice with Lobular inflammation score 1 (<2 foci/200x) [1, 3]: 2
number of mice with Lobular inflammation score 2 (2-4 foci/200x) [1, 3]: 4
number of mice with Lobular inflammation score 3 (>4 foci/200x) [1, 3]: 1
number of mice with Steatosis score 1 (5-33%) [1, 3]: 8
number of mice with Hepatocyte ballooning score 0 (None) [1, 4]: 1
number of mice with Hepatocyte ballooning score 1 (Few balloon cells) [1, 4]: 4
number of mice with Hepatocyte ballooning score 2 (Many cells/prominent ballooning) [1, 4]: 3
number of mice with Lobular inflammation score 0 (No foci) [1, 4]: 2
number of mice with Lobular inflammation score 1 (<2 foci/200x) [1, 4]: 1
number of mice with Lobular inflammation score 2 (2-4 foci/200x) [1, 4]: 5
number of mice with Steatosis score 1 (5-33%) [1, 4]: 8
number of mice with Hepatocyte ballooning score 0 (None) [1, 5]: 4
number of mice with Hepatocyte ballooning score 1 (Few balloon cells) [1, 5]: 3
number of mice with Hepatocyte ballooning score 2 (Many cells/prominent ballooning) [1, 5]: 1
number of mice with Lobular inflammation score 0 (No foci) [1, 5]: 2
number of mice with Lobular inflammation score 1 (<2 foci/200x) [1, 5]: 2
number of mice with Lobular inflammation score 2 (2-4 foci/200x) [1, 5]: 4
number of mice with Steatosis score 0 (<5%) [1, 5]: 3
number of mice with Steatosis score 1 (5-33%) [1, 5]: 5
reduction in plasma fibrinogen levels compared with control (plasma fibrinogen; 30 mg/kg/day oral, 14 days): 52%
reduction in plasma fibrinogen levels compared with control (plasma fibrinogen; 100 mg/kg/day oral, 14 days (PD 72953)): 57%
% of patients experiencing a musculoskeletal adverse event [2, 6]: 0.0%
No = number of muscle skeletal adverse events [2, 6]: 0
% of patients experiencing a musculoskeletal adverse event [2, 7]: 0.0%
No = number of muscle skeletal adverse events [2, 7]: 0
% of patients experiencing a musculoskeletal adverse event [2, 8]: 0.0%
No = number of muscle skeletal adverse events [2, 8]: 0
